Literature values, collected in US9138417B2, “Controlled release particles and production method thereof” (priority 2011, dated 2015).

Row | Compound | water solubility
1 | CCCCNC(=O)OCC#CI [IPBC, 3-iodo-2-propynylbutylcarbamate] | 150 ppm
2 | C=C(C)C(=O)O [Methacrylic acid] | 8.9 mass%
3 | CCCC1COC(Cn2cncn2)(c2ccc(Cl)cc2Cl)O1 (stereo not drawn) [Propiconazole, 1-[2-(2,4-dichlorophenyl)-4-n-propyl-1,3-dioxolane-2-ylmethyl]-1H-1,2,4-triazole] | 110 ppm
